Data on seven compounds can be found in ChEMBL document CHEMBL1156259, “Synthesis and biological evaluation of amidine, guanidine, and thiourea derivatives of 2-amino(6-trifluoromethoxy)benzothiazole as neuroprotective agents potentially useful in brain diseases” (J Med Chem, 2010).

The source made the active and inactive calls. The calls are words filed in the database; no cut-off is given here.

Assay [1] in a line: Antioxidant activity assessed as ABTS+ radical scavenging activity by spectrophotometry relative to 1 mM Trolox. Type of assay: functional.
Assay [2] is filed under the species Rattus norvegicus. Particulars: Wistar, Piriform cortex, at 60 µM.
Description: Inhibition of voltage-dependent Ca(+) channel in Wistar rat brain piriform cortex acutely dissociated neurons assessed as effect on half activation potential of high voltage activated Ba+ current at 60 uM by whole cell patch clamp assay
For assay [3], the species on record is Rattus norvegicus. Particulars: Wistar, Piriform cortex, at 60 µM. The source holds these as a separate data set.
Description: Inhibition of voltage-dependent Ca(+) channel in Wistar rat brain piriform cortex acutely dissociated neurons assessed as effect on high voltage activated Ba+ current activation speed at 60 uM by whole cell patch clamp assay
For assay [4], the species on record is Rattus norvegicus. Particulars: Wistar, Piriform cortex, at 50 µM.
Description: Inhibition of voltage-dependent Na(+) channel in Wistar rat brain piriform cortex layer 2 assessed as inhibition of transient Na+ current amplitude at 50 uM under holding potential of -80 mV by whole cell patch clamp assay
Assay [5] is filed under the species Rattus norvegicus. Particulars: Wistar, Piriform cortex, at 60 µM. The source holds these as a separate data set.
Description: Inhibition of voltage-dependent Ca(+) channel in Wistar rat brain piriform cortex acutely dissociated neurons assessed as effect on high voltage activated Ba+ current deactivation at 60 uM by whole cell patch clamp assay
The test system of assay [6] is Cortex. Kind of assay: Neuroprotective activity in Sprague-Dawley rat brain cortex slices assessed as drug concentration causing maximum reduction of oxygen/glucose deprivation-induced glutamate release. Type of assay: functional. Particulars: read-out: MEC.
The subject of assay [7] is Cortex. Kind of assay: Neuroprotective activity in Sprague-Dawley rat brain cortex slices assessed as interval of drug concentration causing reduction of oxygen/glucose deprivation-induced LDH release. The class given is functional.
Assay [8] has as its system Cortex. Kind of assay: Neuroprotective activity in Sprague-Dawley rat brain cortex slices assessed as reduction of oxygen/glucose deprivation-induced glutamate release at minimal effective concentration. The class given is functional. Details: scale not given: the % may be the effect or the level left.
Assay [9] deals with Cortex. Kind of assay: Neuroprotective activity in Sprague-Dawley rat brain cortex slices assessed as drug concentration causing maximum reduction of oxygen/glucose deprivation-induced LDH release. Type of assay: functional. Particulars: read-out: MEC. (LDH in the medium is a marker of cell lysis.)
In assay [10] the test system is Cortex. Kind of assay: Neuroprotective activity in Sprague-Dawley rat brain cortex slices assessed as interval of drug concentration causing reduction of oxygen/glucose deprivation-induced glutamate release. Type of assay: functional.
The next assay can be described thus: cells. Type of assay: tissue-based. Particulars: Rattus norvegicus, Wistar, Piriform cortex.
Assay [11] relates to Cortex. Kind of assay: Neuroprotective activity in Sprague-Dawley rat brain cortex slices assessed as reduction of oxygen/glucose deprivation-induced LDH release at minimal effective concentration. The class given is functional. Also on record: scale not given: the % may be the effect or the level left.
The target of assay [12] is Nitric oxide synthase 1 (Rattus norvegicus) (UniProt P29476). Kind of assay: Inhibition of nNOS in Sprague-Dawley rat brain assessed as nitric oxide-mediated conversion of oxyhemoglobin to methemoglobin.
Chain of Nitric oxide synthase 1 (Rattus norvegicus) (P29476 whole entry): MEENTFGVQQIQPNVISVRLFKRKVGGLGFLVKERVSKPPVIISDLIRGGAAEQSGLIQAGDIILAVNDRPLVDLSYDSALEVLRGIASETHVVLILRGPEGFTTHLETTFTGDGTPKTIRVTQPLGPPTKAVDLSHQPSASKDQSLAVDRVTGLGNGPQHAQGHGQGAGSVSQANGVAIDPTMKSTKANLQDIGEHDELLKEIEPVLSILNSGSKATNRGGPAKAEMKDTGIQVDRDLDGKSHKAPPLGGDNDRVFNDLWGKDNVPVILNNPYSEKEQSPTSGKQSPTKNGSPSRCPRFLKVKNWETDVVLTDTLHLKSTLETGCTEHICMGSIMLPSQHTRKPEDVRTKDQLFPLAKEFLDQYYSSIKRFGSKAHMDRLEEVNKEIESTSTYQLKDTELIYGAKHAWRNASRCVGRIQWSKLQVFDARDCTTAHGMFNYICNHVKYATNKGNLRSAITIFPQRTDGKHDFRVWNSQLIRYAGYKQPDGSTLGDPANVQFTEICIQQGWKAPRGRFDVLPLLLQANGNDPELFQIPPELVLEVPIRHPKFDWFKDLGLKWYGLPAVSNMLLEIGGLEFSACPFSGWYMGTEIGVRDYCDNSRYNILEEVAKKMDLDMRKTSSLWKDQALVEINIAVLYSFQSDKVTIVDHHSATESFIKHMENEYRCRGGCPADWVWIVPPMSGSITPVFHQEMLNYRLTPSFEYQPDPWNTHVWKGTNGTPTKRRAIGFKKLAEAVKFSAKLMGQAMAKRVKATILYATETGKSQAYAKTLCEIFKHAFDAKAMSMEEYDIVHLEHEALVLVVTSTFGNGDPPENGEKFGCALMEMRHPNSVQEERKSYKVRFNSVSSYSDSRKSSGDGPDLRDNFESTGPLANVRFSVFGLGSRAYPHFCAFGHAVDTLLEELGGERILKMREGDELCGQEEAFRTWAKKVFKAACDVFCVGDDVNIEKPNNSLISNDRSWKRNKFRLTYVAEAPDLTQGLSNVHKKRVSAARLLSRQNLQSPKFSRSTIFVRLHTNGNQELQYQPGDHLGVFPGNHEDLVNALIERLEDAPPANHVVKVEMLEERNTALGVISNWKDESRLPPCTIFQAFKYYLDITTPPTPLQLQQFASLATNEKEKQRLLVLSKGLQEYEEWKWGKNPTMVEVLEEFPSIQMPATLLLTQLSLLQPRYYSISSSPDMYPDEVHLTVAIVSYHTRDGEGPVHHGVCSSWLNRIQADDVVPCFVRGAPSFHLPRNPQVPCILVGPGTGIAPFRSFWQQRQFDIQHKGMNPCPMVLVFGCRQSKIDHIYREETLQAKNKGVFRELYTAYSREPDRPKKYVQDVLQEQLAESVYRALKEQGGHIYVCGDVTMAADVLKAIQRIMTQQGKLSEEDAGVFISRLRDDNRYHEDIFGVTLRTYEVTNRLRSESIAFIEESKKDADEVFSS

Description for cells: Inhibition of voltage-dependent Ca(+) channel in Wistar rat brain piriform cortex acutely dissociated neurons assessed as inhibition of high voltage activated Ba+ current amplitude at under holding potential of -60 mV by whole cell patch clamp assay

As for `Nc1nc2ccc(OC(F)(F)F)cc2s1` [RILUZOLE], the inhibition result (in [1]; in the assay filed under Rattus norvegicus [2]; in the assay filed under Rattus norvegicus [3]) was “inactive” throughout. Also, the inhibition (commonly the change of the read-out against control, counted positive when it falls) in the assay filed under Rattus norvegicus [4] is above 50%. In addition, the inhibition entry in the assay filed under Rattus norvegicus [5] was “Active”. The minimal effective concentration came to 1 µM with Cortex [6] and 10 µM in the assay on Cortex [9]. In addition, the Activity in the assay on Cortex [7] was found to be 0.1 µM; in the assay on Cortex [8], 100%; in the assay on Cortex [10], 1 µM; with Cortex [11], 100%. In addition, inhibition in the assay “cells” was half-maximal at 34.2 µM (IC50).
Take `CCCNC(=S)Nc1nc2ccc(OC(F)(F)F)cc2s1`: the Ratio in [1] worked out at 0.5. The compound also showed an inhibition in the assay listed under Rattus norvegicus [4] of 15%. Further, the minimal effective concentration with Cortex [6] and with Cortex [9] was 0.01 µM in each case. In addition, the Activity in the assay on Cortex [7] came to 0.01 µM; with Cortex [8] it was 94.2%; with Cortex [10] it was 0.01 µM; in the assay with Cortex [11] it was 60.9%.
On to `CC(C)NC(=S)Nc1nc2ccc(OC(F)(F)F)cc2s1`, for which the Ratio in assay [1] was 0.64. Also, the minimal effective concentration was 0.1 µM with Cortex [6] and 0.01 µM in the assay on Cortex [9]. The Activity with Cortex [7] was determined as 0.01 µM; with Cortex [8], 80.3%; in the assay with Cortex [10], 0.01 µM; in the assay on Cortex [11], 50%.
As to `C/C(=N\c1nc2ccc(OC(F)(F)F)cc2s1)N(C)C`, in assay [12], the inhibition result is “inactive”. Moreover, the minimal effective concentration in the assay on Cortex [6] and with Cortex [9] was 0.1 µM each time. The Activity in the assay on Cortex [7] came to 0.1 µM; in the assay with Cortex [8], 100%; in the assay on Cortex [10], 0.1 µM; with Cortex [11] it was 56.9%.
For the compound `CCNC(=S)Nc1nc2ccc(OC(F)(F)F)cc2s1`, in [1], the Ratio amounted to 0.88. Besides, the minimal effective concentration turned out to be 1 µM with Cortex [6] and 0.1 µM in the assay on Cortex [9]. Further, the Activity in the assay on Cortex [7] was 0.1 µM; in the assay on Cortex [8], 80.1%; in the assay with Cortex [10] it was 1 µM; in the assay with Cortex [11] it was 73.1%.
With `CCCCNC(=S)Nc1nc2ccc(OC(F)(F)F)cc2s1`, the Ratio in assay [1] is 0.98. In addition, the inhibition entry in the assay listed under Rattus norvegicus [2] and in the assay listed under Rattus norvegicus [3] was “inactive” throughout. In the assay filed under Rattus norvegicus [4], this compound showed an inhibition of 0%. The inhibition result in the assay filed under Rattus norvegicus [5] is “Active”. Also, the minimal effective concentration in the assay with Cortex [6] came out at 1 µM; with Cortex [9] it was 0.01 µM. Moreover, the Activity with Cortex [7] turned out to be 0.01 µM; with Cortex [8], 100%; in the assay with Cortex [10], 0.01 µM; with Cortex [11], 32%. Further, inhibition in the assay “cells” was half-maximal at 24.1 µM (IC50).
Regarding `O=c1c2ccccc2[se]n1-c1ccccc1`, the Ratio in assay [1] worked out at 0.32.
